Measurements from patent US20200010910A1, “Cytotoxic Chemotherapy-Based Predictive Assays for Acute Myeloid Leukemia” (The Regents of The University of California, priority 2017, published 2020).

What was measured:
[1] = test system: H23; experiment: carboplatin-DNA monoadducts by AMS; type: cell-based, human
Description: (§1) NSCLC cell lines were cultured to >90% confluence, dosed with [^14C]carboplatin, and subjected to DNA isolation and AMS analysis. 60 mm dishes were seeded at a density of 1×10^6 cells/dish and allowed to attach overnight in a 37° C. humidified atmosphere containing 5% CO2. At hour 0, cells were dosed with 1 μM (relevant microdose concentration) or 100 μM carboplatin (therapeutically relevant concentration), each comprising 0.3 μM [^14C]carboplatin (50,000 dpm/ml). Cells were incubated with [^14C]carboplatin for 4 h before washing and cultured with carboplatin-free medium to mimic the in vivo carboplatin half-life (1.3-6 hours) in patients. DNA was harvested from the cell lines at hours 0, 2, 4, 8 and 24 hours after initial dosing. Ten micrograms of DNA per sample was converted to graphite and measured by AMS for ^14C/total C quantification. Triplicate sets of AMS experiments were performed for each cell line and time point. The 14C/total C ratio was converted to 14C atoms per DNA base-pair according to the algorithm described herein to provide values of carboplatin-DNA monoadducts per 10^8 nucleotides. The data was plotted as carboplatin-DNA monoadducts per 10^8 nucleotide (nt) vs time (FIGS. 8A and 8B). There was a time-dependent increase in the carboplatin-DNA monoadduct concentration during the first 4 hours of incubation with therapeutic or microdosing carboplatin (FIGS. 8A and 8B). After the cells were washed and incubated with carboplatin-free media, the monoadduct levels decreased over a period of several hours. […] Carboplatin-DNA monoadduct levels in the microdosing group had essentially the same kinetics as the therapeutic group, but with 100-fold lower adduct levels at each time point (FIGS. 8A and 8B).

[2] = test system: H727; experiment: carboplatin-DNA monoadducts by AMS; type: cell-based, human
Description: as §1

[3] = test system: H460; experiment: carboplatin-DNA monoadducts by AMS; type: cell-based, human
Description: as §1

[4] = test system: A549; experiment: carboplatin-DNA monoadducts by AMS; type: cell-based, human
Description: as §1

[5] = test system: H1975; experiment: carboplatin-DNA monoadducts by AMS; type: cell-based, human
Description: as §1

[6] = test system: PDX Model BL0269; experiment: drug-DNA adducts in PDX tumor by AMS; type: in vivo, NSG mice
Text: (§2) Female NSG mice (5-8 weeks of age, body weight: 20 to 25 g) were obtained from Jackson Laboratories (CA, USA). All animals were kept under pathogen-free conditions and were allowed to acclimatize for at least 4 days prior to any experiments. PDX models bearing the indicated patient derived xenografts were created by subcutaneous injection at the flank of 1 mm^3 tumor tissue. To establish multiple PDXs to allow efficacy studies with multiple drugs, PDXs from passage 2-4 were minced into 1 mm^3 sections and injected subcutaneously into multiple mice. At least 3 mice were used for each treatment group. Tumors were allowed to grow to at about 100 mm^3 before being assessed for drug sensitivity or the induction of DNA adducts by the administration of a microdose or a therapeutic dose of labeled drug. To assess tumor response to chemotherapy, cisplatin was administered at 2 mg/kg IV every 7 days for a total of 3 cycles, or gemcitabine was administered at 150 mg/kg IP every 7 days for a total of 4 cycles. G/C combination chemotherapy consisted of the simultaneous administration of both drugs using the schema described above. Tumor growth was assessed by measuring palpable tumors with a caliper and calculating tumor volume. Drug-DNA adduct frequencies were measured in tumor tissue collected 24 hours after intravenous injection of labeled drug and stored at −80° C. until DNA isolation. DNA was isolated using a modified Wizard procedure (Promega), quantitated by spectrophotometry, and then stored frozen at −20° C. until AMS analysis. Ten micrograms of DNA per sample was converted to graphite and measured by AMS for 14C quantification as previously described.
(§3) NSG mice bearing the indicated PDX tumors were injected with a microdose of ^14C-labeled carboplatin (FIG. 22A) or ^14C-labeled gemcitabine (FIG. 22B). The microdose of ^14C-labeled carboplatin was 0.375 mg/kg carboplatin, 50,000 dpm/g. The microdose of ^14C-labeled gemcitabine was 0.092 mg/kg gemcitabine, 1000 dpm/g. The doses of each drug administered to the mice were chosen to target 1 μM in plasma concentration of carboplatin and 0.3 μM in plasma concentration of gemcitabine. These plasma concentrations represent 1% of the approximate peak plasma concentration during human chemotherapy. Animals were sacrificed after 24 h and drug-DNA adduct frequency was determined from collected tumor tissue by AMS measurements of ^14C in tumor DNA. Carboplatin DNA-adduct levels correlate with PDX model sensitivity to cisplatin at 24 h after microdosing (FIG. 22A). Gemcitabine DNA-adduct levels correlate with PDX model sensitivity to gemcitabine at 24 h after microdosing (FIG. 22B). […] There is no significant difference in carboplatin-DNA monoadduct levels between the three resistant PDX models. […] We conclude that microdose induced carboplatin-DNA monoadducts predicts sensitivity to cisplatin chemotherapy, and microdose induced gemcitabine incorporation predicts sensitivity to gemcitabine chemotherapy.
(§4) In this example we test whether gemcitabine/carboplatin (G/Carbo) combination therapy has an effect on the formation of drug-DNA adducts in this synergistic tumor model. In FIG. 23A, NGS mice bearing BL0645 xenographs were administered via tail vein injection a therapeutic dose of [^14C]carboplatin alone or a therapeutic dose of [^14C]carboplatin in combination with a therapeutic dose of gemcitabine. Carboplatin-DNA monoadducts were measured in tumor tissue 24 h after dosing. A therapeutic dose of the combination [^14C]carboplatin plus unlabeled gemcitabine leads to a significant increase in carboplatin-DNA monoadduct level (94.84±16.02 versus 209.6±64.66 adducts per 10^8 nucleotides, p=0.032) compared to treatment with carboplatin alone. In FIG. 23B, the same experiment was conducted in which the mice received a therapeutic dose of [^14C]gemcitabine alone or a therapeutic dose of [^14C]gemcitabine in combination with a therapeutic dose of unlabeled carboplatin. […]

[7] = test system: PDX Model BL0645; experiment: drug-DNA adducts in PDX tumor by AMS; type: in vivo, NSG mice; conditions: 24 h
Text: as §2, §3, §4

[8] = 1 μM carboplatin 4 h, up to 24 hours
[9] = 1 μM carboplatin 4 h then drug-free
[10] = 100 μM carboplatin 4 h, up to 24 hours
[11] = 100 μM carboplatin 4 h then drug-free

## N.N.O=C([O-])C1(C(=O)[O-])CCC1.[Pt+2] [carboplatin]
[1]; 1 μM carboplatin
  Adduct level-4 hr-microdose: 7.4 ± 1.4 /10^8 nt
[1]; [8]
  AUC of adduct-microdose: 136.6 ± 9.0 hr-adducts/10^8 nt
[1]; [9]
  Adduct level-24 hr Microdose: 5.4 ± 0.1 /10^8 nt
[1]; 100 μM carboplatin
  Adduct level-4 hr-therapeutic: 825 ± 5.8 /10^8 nt
[1]; [10]
  AUC of adduct-therapeutic: 13255 ± 835 hr-adducts/10^8 nt
[1]; [11]
  Adduct level-24 hr-therapeutic: 414 ± 27.1 /10^8 nt
[2]; 1 μM carboplatin
  Adduct level-4 hr-microdose: 6.23 ± 2.73 /10^8 nt
[2]; [8]
  AUC of adduct-microdose: 61.7 ± 9.0 hr-adducts/10^8 nt
[2]; [9]
  Adduct level-24 hr Microdose: 1.3 ± 0.1 /10^8 nt
[2]; 100 μM carboplatin
  Adduct level-4 hr-therapeutic: 684 ± 223.5 /10^8 nt
[2]; [10]
  AUC of adduct-therapeutic: 6111 ± 661 hr-adducts/10^8 nt
[2]; [11]
  Adduct level-24 hr-therapeutic: 174 ± 5.6 /10^8 nt
[3]; 1 μM carboplatin
  Adduct level-4 hr-microdose: 6.8 ± 0.2 /10^8 nt
[3]; [8]
  AUC of adduct-microdose: 85.6 ± 8.4 hr-adducts/10^8 nt
[3]; [9]
  Adduct level-24 hr Microdose: 1.0 ± 0.4 /10^8 nt
[3]; 100 μM carboplatin
  Adduct level-4 hr-therapeutic: 885 ± 36.3 /10^8 nt
[3]; [10]
  AUC of adduct-therapeutic: 9488 ± 902 hr-adducts/10^8 nt
[3]; [11]
  Adduct level-24 hr-therapeutic: 177 ± 11.5 /10^8 nt
[4]; 1 μM carboplatin
  Adduct level-4 hr-microdose: 2.0 ± 0.4 /10^8 nt
[4]; [8]
  AUC of adduct-microdose: 31.5 ± 1.6 hr-adducts/10^8 nt
[4]; [9]
  Adduct level-24 hr Microdose: 0.9 ± 0.0 /10^8 nt
[4]; 100 μM carboplatin
  Adduct level-4 hr-therapeutic: 163 ± 74.4 /10^8 nt
[4]; [10]
  AUC of adduct-therapeutic: 2331 ± 257 hr-adducts/10^8 nt
[4]; [11]
  Adduct level-24 hr-therapeutic: 74 ± 10.4 /10^8 nt
[5]; 1 μM carboplatin
  Adduct level-4 hr-microdose: 3.3 ± 0.5 /10^8 nt
[5]; [8]
  AUC of adduct-microdose: 47.0 ± 4.8 hr-adducts/10^8 nt
[5]; [9]
  Adduct level-24 hr Microdose: 1.1 ± 0.6 /10^8 nt
[5]; 100 μM carboplatin
  Adduct level-4 hr-therapeutic: 322 ± 24.1 /10^8 nt
[5]; [10]
  AUC of adduct-therapeutic: 4478 ± 353 hr-adducts/10^8 nt
[5]; [11]
  Adduct level-24 hr-therapeutic: 108 ± 33.3 /10^8 nt
[6]; control experiment FIG. 23E, microdose single agent or G/Carbo combination
  Carboplatin-DNA monoadduct levels: 1.85±0.798 adducts per 10^8 nucleotides
[6]; microdose 0.375 mg/kg carboplatin, 24 h (FIG. 22A)
  mean carboplatin-DNA monoadduct level: 1.77±0.706 adducts per 10^8 nucleotides
[7]; microdose 0.375 mg/kg carboplatin alone or with gemcitabine 0.092 mg/kg
  mean carboplatin-DNA monoadduct level: 1.27±0.307 adducts per 10^8 nucleotides
[7]; therapeutic 37.5 mg/kg carboplatin alone or with gemcitabine 9.2 mg/kg
  carboplatin-DNA monoadduct level: 94.84±16.02 adducts per 10^8 nucleotides
